Test results published in patent US20040013696A1, “Use of ellagic acid as an anti-pollution cosmetic agent” (priority 2000, published 2004).

Tests used:
human keratinocytes [1] = test: Protection against the effects of ozone: ozone-induced lipid hydroperoxides (DCFH-DA fluorescence); format: cell-based; details: ellagic acid 200 μM; for % fluorescence observed ± SEM, relative to the unprotected controls: ozone 10 ppm
Procedure: Ozone has the capacity to oxidize cell constituents, especially generating carbonylated proteins and lipid hydroperoxides. Quantification of the lipid hydroperoxides is one means of measuring the oxidative stress induced by an exposure of skin tissue to this pollutant. A decrease in their content indicates a protective effect of ellagic acid. […] The incubations are performed at 37° C., 5% CO2 in humid atmosphere. […] Hydroperoxides constitute an intracellular stress marker. They are detected and quantified by means of a fluorescence technique (Lebel C. P., Ischiropoulos H. and Bondy S. C. […] Chem. Res. Toxicol.: 5: 227-231). […] The cells, pretreated for 24 hours with ellagic acid, are then washed with phosphate-buffered saline (PBS) and placed in contact for 30 minutes with a solution of DCFH-DA (500 μl/well), prepared in the culture medium to a concentration of 320 μM. […] They are then exposed to ozone (10 ppm), in a humid atmosphere, in an incubator set at 37° C. The formation of fluorescent DCF (excitation screen at 485 nm and emission screen at 530 nm) resulting from the production of hydroperoxides is measured after different times of exposure to ozone: 0, 5, 10 and 20 minutes. […] For each time, the fluorescence values of the unprotected controls are set at 100%. The resulting values in the presence of ellagic acid are then expressed relative to this control value. […] This protection is at a maximum from 5 minutes of exposure onward (71.8% drop in induced stress). It is still significant after 20 minutes of exposure (47.7% drop in induced stress).

human keratinocytes [2] = test: Covalent binding of 14C-benzo[a]pyrene to cell proteins (alkylation of nucleophiles); format: cell-based
Excerpt: Polycyclic aromatic hydrocarbons (PAHs), adsorbed onto the surface of particles and dust conveyed by the urban atmosphere, can penetrate into skin tissue and be biotransformed therein. Their metabolism in the liver, which is well-described in the literature, leads to the formation of monohydroxylated metabolites (detoxification pathway), epoxides and diol epoxides (toxifying pathway). It follows the same profile in the skin. […] After consequent or repeated exposures to the pollutant, its potential toxicity can lead to a contact hypersensitivity in the case of the alkylation of proteins. […] The cells are inoculated on D-3 into 6-well dishes at a rate of 53 000 cells/cm^2. The incubations are performed at 37° C. in humid atmosphere enriched with 5% CO2. […] The covalent binding to cell proteins is measured according to the protocol of Hoellinger et al., adapted to a filtration method in 96-well microplates (H. Hoellinger, M. Sonnier, J. Gray, T. A. Connors, J. Pichon and N. H. Nam. In vitro covalent binding of […], bioresmethrin and their common alcohol to hepatic proteins. Toxicol. Appl. Pharmacol., 1985, 77, 11-18). […] The aim of this series of washes is to remove from the proteins any radioactivity not covalently bound. […] Samples are then taken to assay the proteins and count the radioactivity of the solution. The results are expressed as nmol of B[a]P bound per mg of proteins.

human keratinocytes [3] = tested on: human keratinocytes
Procedure: The study was performed on a monolayer culture of human keratinocytes obtained from plastic surgeries. The cells are inoculated on D-3 into 96-well dishes at a rate of 25 000 cells/cm^2 in 100 μl of culture medium. The incubations are performed at 37° C. in a humid atmosphere enriched with 5% CO2.
Initially, the cells are treated for 24 hours with increasing concentrations (0, 10, 25, 50, 75, 100, 150 and 200 μM) of cadmium chloride (CdCl2), so as to determine its cytotoxicity. […]
At the end of the treatment, the cell viability is determined by means of the neutral red incorporation test (POS 55/006) and reading at 550 nm (ref: Borenfreund, E and Puerner, J. A. (1984) A simple quantitative procedure using monolayer cultures for cytotoxicity assays. Tissue Culture Methods; 9: 7-9).
The cells are rinsed with PBS buffer in order to remove the treatment solutions, and are then incubated for three hours at 37° C. in a neutral red solution (100 μl) prepared to a concentration of 0.5 mg/ml in the culture medium. […] The amount extracted is determined by reading the optical density on a spectrophotometer at 550 nm.
The concentration of CdCl2 that induces a 50% drop in the cell viability (IC-50) is then calculated.

Structure (SMILES): O=c1oc2c(O)c(O)cc3c(=O)oc4c(O)c(O)cc1c4c23 [ellagic acid, 2,3,7,8-tetrahydroxy-(1)benzopyrano(5,4,3-cde)(1)benzopyran-5,10-dione]
- drop in induced stress (human keratinocytes [1]; 5 minutes of exposure to ozone): 71.8%
- drop in induced stress (human keratinocytes [1]; 20 minutes of exposure to ozone): 47.7%
- % fluorescence observed ± SEM, relative to the unprotected controls (human keratinocytes [1]; 5 min. of contact): 28.2 ± 3.3%
- % fluorescence observed ± SEM, relative to the unprotected controls (human keratinocytes [1]; 10 min. of contact): 36.3 ± 3.4%
- % fluorescence observed ± SEM, relative to the unprotected controls (human keratinocytes [1]; 20 min. of contact): 52.3 ± 4.4%
- reduction in the reactivity of B(a)P by a factor (human keratinocytes [2]; in the presence of ellagic acid 100 μM): 3.1
- maximum dose of ellagic acid noncytotoxic to the cells (human keratinocytes [3]; human, 24 h): 200 µM

Structure (SMILES): c1ccc2c(c1)cc1ccc3cccc4ccc2c1c34 [B (a) P, benzo(a)pyrene, reference compound]
- covalent binding to keratinocyte proteins (human keratinocytes [2]; benzo(a)pyrene alone at 20 μM): 0.28 nmol of B(a)P per mg of protein

Structure (SMILES): [Cl][Cd][Cl] [cadmium chloride, reference compound]
- IC50 (human keratinocytes [3]; read-out: IC-50 of cadmium chloride, Mean ± SEM, without ellagic acid, 24 hours, n=4): 39 µM
